Test results published in patent publication US20250248926A1, “AN INJECTABLE MICROPARTICLE SYSTEM AND METHOD OF PREPARING THEREOF” (AMRITA VISHWA VIDYAPEETHAM, priority 2022, published 2025).
Like-named read-outs stand apart in the source and are kept apart here.

Legend:
[1] = by 3rd hour, CT
Protocol: Contrast agent Iodine loaded microstructures are injected in left and right hemispheres of a goat brain phantom and imaged over 4 hours using MicroCT (FIG. 21 (A-E)).
Iodine loaded microstructures (in the form of injectable gels) are injected in left and right hemispheres of a goat brain phantom and imaged over 4 hours using CT (FIG. 21 (A-E)).

[2] = rat brain
Protocol: 200-250 g Wistar rats (female) were selected for the study. Respective microparticle gel was injected (10 μl/1 mg BCNU) injected at coordinates 2 mm lateral, 2 mm anterior and 2 mm depth using stereotactic equipment. Animals were euthanized 3, 7 and 15 days post injection, brains were excised and stored at −80° C. Each brain was sliced into 1 mm sections and each section was homogenized in 1 ml MilliQ water (pH 4) and precipitated using 10 ml Ethanol. The samples are centrifuged at 10000 rpm for 15 minutes for drug extraction (repeated 4 times). The solvents are evaporated using a vacuum centrifuge and then remnant pellets are analyzed for their drug content using HPLC.

[3] = system: C6 (rat glioma) cells; test: In vitro cytotoxicity, MTT assay, C6 cells; type: cell-based
Protocol: (§1) Cells of seeding density 4×10^4 cells/well were treated with concentrations from 1 μM-100 μM of BCNU or PL loaded microstructures 24 hours post seeding. MTT assay was performed 96 hours post treatment. […] With radiation, the cell viability of non-drug treated controls reduced by ˜60%.

[4] = system: T98G (human glioma) cells; test: In vitro cytotoxicity, MTT assay, T98G cells; type: cell-based; conditions: 100 μM (highest concentration), MTT 96 hours post treatment
Protocol: as §1

Compound: II [Free iodine]
- diffusion [1]: 1.6 cm

Compound: O=NN(CCCl)C(=O)NCCCl [free BCNU, 1,3-Bis(2-chloroethyl)-1-nitrosourea]
- drug in brain ([2]; day-3 post intracranial injection): 15%
- drug in brain ([2]; day-15 post intracranial injection): 3.9%
- viability at 100 µM ([3]; Rattus norvegicus, C6, 96 h, read-out: cells viable (cell viability)): ~20%

Compound: COc1cc(/C=C/C(=O)N2CCC=CC2=O)cc(OC)c1OC [free PL, Piperlongumine]
- cells remaining (cell viability) [4]: 16.6%
- cells viable (cell viability) ([3]; C6 cells, 100 μM, MTT 96 hours post treatment): ~3%
